Here are results for four compounds from patent US20220370416A1, “COMPOUNDS AND METHODS FOR TARGETED DEGRADATION OF KRAS” (Arvinas Operations, Inc., priority 2020, published 2022).

SMILES strings stand for the structures.

Experiment [1] has as its target T1, HiBit-KRAS^G12C (Homo sapiens, UniProt P01116, G12C). As to the kind of experiment: HiBit degradation assay in SW1573 HiBit-KRas^G12C cells. The note with it: 24 hours; for Dmax: SW1573, SW1573 HiBit-KRas^G12C; for DC50: SW1573 HiBit-KRas^G12C. More on the design: expressed in transfected cells; host or cells: SW1573 (clone E6), modified pcDNA3.1 vector, TK promoter. Format: cell-based. Put shortly:
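SW1573 cells stably expressing N-terminally HiBit-tagged KRAS G12C, under the TK promoter, were treated 24 h at 37 °C with 10 μM to 20 nM compound in 0.1% or 0.5% DMSO. Residual HiBit luminescence normalised to DMSO and fitted with a 4-parameter model for DC50 and Dmax. Points with ≥50% viability loss (alamar blue) excluded.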

For experiment [2], the target named is T1, HiBit-KRAS^G12C. As to the kind of experiment: HiBit degradation assay in MiaPaCa-2 HiBit-KRas^G12C cells. The conditions noted are these: 24 hours; for Dmax: MIA PaCa-2, MiaPaCa-2 HiBit-KRas^G12C cells, maximum degradation; for DC50: read-out: KRas^G12C-HiBiT (MiaPaCa; 0.5% DMSO) IC50, MiaPaCa-2 HiBit-KRas^G12C cells. Format: cell-based. The procedure, abridged:
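MiaPaCa-2 cells with CRISPR N-terminal HiBit knock-in on one endogenous KRAS^G12C allele, treated 24 hours at 37° C with compound titrated 10 μM to 20 nM (0.1% or 0.5% DMSO). Lytic HiBit luminescence normalized to DMSO, 4-parameter fit giving DC50 and Dmax; points cytotoxic to […] cells by alamar blue excluded.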
Background: With HiBiT, luminescence reflects the tagged protein that the partner subunit can reach.

Where [3] appears, read: 0.5% DMSO, read-out: KRas^G12C-HiBiT (SW1573; 0.5% DMSO) Dmax**.
Where [4] appears, read: read-out: KRas^G12C-HiBiT (SW1573; 0.5% DMSO) IC50***, 0.5% DMSO.
The mark [5] stands for this setting: 0.5% DMSO, read-out: KRas^G12C-HiBiT (MiaPaCa; 0.5% DMSO) DMax.
[6] abbreviates: 0.1% DMSO, read-out: KRas^G12C-HiBit (SW1573; 0.1% DMSO) Dmax**.
[7] abbreviates: 0.1% DMSO, read-out: KRas^G12C-HIBit (SW1573; 0.1% DMSO) DC50*.
The mark [8] stands for this setting: 0.1% DMSO, read-out: KRas^G12C-HiBiT (MiaPaCa; 0.1% DMSO) DMax.

T1 sequence (P01116 1-186 isoform P01116-2 G12C limits assumed): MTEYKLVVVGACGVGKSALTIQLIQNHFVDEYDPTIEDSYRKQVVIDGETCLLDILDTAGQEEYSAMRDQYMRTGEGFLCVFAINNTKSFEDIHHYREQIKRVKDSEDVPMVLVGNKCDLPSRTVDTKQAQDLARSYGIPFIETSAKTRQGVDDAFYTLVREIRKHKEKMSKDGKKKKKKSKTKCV

For `C=CC(=O)N1CCN(c2nc(O[C@H](C)CN3CCC(COCC(=O)N[C@H](C(=O)N4C[C@H](O)C[C@H]4C(=O)N[C@@H](C)c4ccc(-c5scnc5C)cc4)C(C)(C)C)CC3)nc3c(F)c(-c4cc(O)cc5ccccc45)c(Cl)cc23)C[C@@H]1CC#N` [Compound 152, (2S,4R)-1-[(2S)-2-[2-({1-[(2R)-2-({6-chloro-4-[(3S)-3-(cyanomethyl)-4-(prop-2-enoyl)piperazin-1-yl]-8-fluoro-7-(3-hydroxynaphthalen-1-yl)quinazolin-2-yl}oxy)propyl]piperidin-4-yl}methoxy)acetamido]-3,3-dimethylbutanoyl]-4-hydroxy-N-[(1S)-1-[4-(4-methyl-1,3-thiazol-5-yl)phenyl]ethyl]pyrrolidine-2-carboxamide], the values for the Dmax in experiment [1] (setting [3]) and in experiment [2] (setting [5]) were above 70% and 35 to 70%, respectively. Moreover, the DC50 in experiment [1] (setting [4]) and in experiment [2] (0.5% DMSO) was 0.1 to 1 µM each time.

As for `C=CC(=O)N1CCN(c2nc(O[C@H](C)CN3CCC(OCCOCC(=O)N[C@H](C(=O)N4C[C@H](O)C[C@H]4C(=O)N[C@@H](C)c4ccc(-c5scnc5C)cc4)C(C)(C)C)CC3)nc3c(F)c(-c4cc(O)cc5ccccc45)c(Cl)cc23)CC1` (atropisomer, axis not shown) [Compound 86, (2S,4R)-1-[(2S)-2-{2-[2-({1-[(2R)-2-{[6-chloro-8-fluoro-7-(3-hydroxynaphthalen-1-yl)-4-[4-(prop-2-enoyl)piperazin-1-yl]quinazolin-2-yl]oxy}propyl]piperidin-4-yl}oxy)ethoxy]acetamido}-3,3-dimethylbutanoyl]-4-hydroxy-N-[(1S)-1-[4-(4-methyl-1,3-thiazol-5-yl)phenyl]ethyl]pyrrolidine-2-carboxamide], the Dmax in experiment [1] (setting [6]), in experiment [1] (setting [3]), in experiment [2] (setting [8]) and in experiment [2] (setting [5]) was 35 to 70% in each case. The DC50 in experiment [1] (setting [7]) was 0.1 to 1 µM.

As for `C=CC(=O)N1C[C@H](C)N(c2nc(OCCN3CCC(COCC(=O)N[C@H](C(=O)N4C[C@H](O)C[C@H]4C(=O)N[C@@H](C)c4ccc(-c5scnc5C)cc4)C(C)(C)C)CC3)nc3c(F)c(-c4cc(O)cc5ccccc45)c(Cl)cc23)C[C@H]1C` [Compound 36, (2S,4R)-1-[(2S)-2-[2-({1-[2-({6-chloro-4-[(2S,5R)-2,5-dimethyl-4-(prop-2-enoyl)piperazin-1-yl]-8-fluoro-7-(3-hydroxynaphthalen-1-yl)quinazolin-2-yl}oxy)ethyl]piperidin-4-yl}methoxy)acetamido]-3,3-dimethylbutanoyl]-4-hydroxy-N-[(1S)-1-[4-(4-methyl-1,3-thiazol-5-yl)phenyl]ethyl]pyrrolidine-2-carboxamide], the Dmax is 35 to 70% in experiment [1] (setting [6]), 35 to 70% in experiment [1] (setting [3]), below 35% in experiment [2] (setting [8]) and 35 to 70% in experiment [2] (setting [5]). The DC50 in experiment [1] (setting [7]) lay in the range of 0.1 to 1 µM.

Consider `C=CC(=O)N1CCN(c2nc(OCCN3CC[C@H](COCC(=O)N[C@H](C(=O)N4C[C@H](O)C[C@H]4C(=O)N[C@@H](C)c4ccc(-c5scnc5C)cc4)C(C)(C)C)C3)nc3c(F)c(-c4cc(O)cc5ccccc45)c(Cl)cc23)C[C@@H]1CC#N` [Compound 142, (2S,4R)-1-[(2S)-2-(2-{[(3S)-1-[2-({6-chloro-4-[(3S)-3-(cyanomethyl)-4-(prop-2-enoyl)piperazin-1-yl]-8-fluoro-7-(3-hydroxynaphthalen-1-yl)quinazolin-2-yl}oxy)ethyl]pyrrolidin-3-yl]methoxy}acetamido)-3,3-dimethylbutanoyl]-4-hydroxy-N-[(1S)-1-[4-(4-methyl-1,3-thiazol-5-yl)phenyl]ethyl]pyrrolidine-2-carboxamide], for which the Dmax in experiment [1] (setting [3]) and in experiment [2] (setting [5]) was 35 to 70% in each case. The DC50 was 0.1 to 1 µM in experiment [1] (setting [4]) and above 1 µM in experiment [2] (0.5% DMSO).
